Data from a melting point compilation (Tetko et al.; mined from patent text by program, amines drawn as free bases though some values may be those of a salt).

First: COc1cn(-c2ccc(N3CCN(C)C3=O)cc2F)nc(-c2ccnn2-c2ccccc2)c1=O
Second: CC(C)n1nc(-c2c(-c3ccccc3)nn3ccc(N4CCN(C(=O)c5ccccc5)CC4)cc23)ccc1=O
The melting point of the first is higher: 208 to 209 °C for the first, 124 to 126 °C for the second.

Compared with `C#CC1(OC(=O)NCCCC)CCN(CCC=C(c2ccc(F)cc2)c2ccc(F)cc2)CC1`, `COC(=O)N1CCC(C(C(N)=O)(c2ccc(F)cc2)c2ccc(F)cc2)CC1` is higher in melting point: 83 to 84 °C for the first, 126 to 129 °C for the second.

Compared with `COC(=O)c1cc(Cl)cnc1N`, `N#Cc1ncc(Cl)cc1F` is lower in melting point: 139 to 140 °C for the first, 72 to 73 °C for the second.

First: Cc1nc(C)c(-c2ccnc(Nc3cccnc3)n2)s1
Second: Cc1cc(F)ccc1-c1cnccn1
The melting point of the first is higher: 159 to 162 °C for the first, 66 to 68 °C for the second.

First: Cn1cc(C#N)c(=O)c(-c2cccc(C(F)(F)F)c2)c1
Second: FC(F)(F)c1cccc(CN2C(=NCCCn3ccnc3)c3cccc4cccc2c34)c1
The melting point of the first is higher: 228 to 229 °C for the first, 108 to 109 °C for the second.

First: CC1(c2cc(-c3cccc(CC4SC(N5CCOCC5)=NC4=O)c3)ccc2O)CCCCC1 (stereo not given)
Second: CCOC(OCC)N1C(=O)C2(CCCCC2)c2cc(-c3cc(F)cc(C#N)c3)ccc21
The melting point of the first is lower: 98 to 99 °C for the first, 146 °C for the second.

Compared with `CN(C)C=Cc1cc(Cl)c([N+](=O)[O-])cc1Cl`, `NC(=O)C(Nc1ncccc1[N+](=O)[O-])c1c(Cl)cccc1Cl` (stereo not given) is higher in melting point: 173 to 175 °C for the first, 207 °C for the second.

Compared with `C[C@@H](Nc1nc(Nc2cccc(NS(C)(=O)=O)c2)nc2[nH]ccc12)C(C)(C)C`, `CCOCc1nc2c(N)nc3cc(-c4cccnc4)ccc3c2n1CC(C)(C)OCCS(C)(=O)=O` is higher in melting point: 125 to 128 °C for the first, 202 to 204 °C for the second.

First: Cc1cccc(NC(=O)Nc2cccc3c2C2CC(O)CCN2C3=O)n1 (stereo not given)
Second: C[C@H]1CC[C@@H](OC(=O)c2nc(Cl)n3c2[C@@H]2CCCN2C(=O)c2ccccc2-3)CC1
The melting point of the first is higher: 240 to 242 °C for the first, 176 to 177 °C for the second.

First: CC(O)CCCCn1cnc2c1c(=O)n(C)c(=O)n2C (stereo not given)
Second: CC1=C(C)C(=O)C(CCCCC#CCCCC#CC(=O)O)=C(C)C1=O
The melting point of the first is higher: 93 to 94 °C for the first, 49 to 51 °C for the second.

First: CNC(=O)c1c(I)c(NC(=O)COC)c(I)c(C(=O)NC(CO)C(=O)O)c1I (racemic)
Second: COC(=O)c1cc(C(=O)O)cc(C(=O)OC)c1C(=O)OC
The melting point of the first is higher: 247 to 248 °C for the first, 143 to 144 °C for the second.

First: CC1=C(C(=O)OCCOc2ccccc2)C(c2cccc(Cl)c2C)C2=C(CNCC2=O)N1 (stereo not given)
Second: Cc1oc(-c2ccccc2)nc1CCOc1ccc(CC2SC(=O)NC2=O)c2ccccc12 (stereo not given)
The melting point of the first is higher: 233 to 235 °C for the first, 188 to 191 °C for the second.

Compared with `CC(C)Cn1c(CNC(=O)OC(C)(C)C)c(-c2ccccc2F)c2cc(C#N)ccc2c1=O`, `CCCc1nc2c(N)nc3cc(OCc4ccc(OC)cc4)ccc3c2n1CC(C)C` is lower in melting point: 191 to 192 °C for the first, 186 to 188 °C for the second.

First: COC(=O)CCc1cc2cc(Cl)ccc2n1S(=O)(=O)c1cccc2ccccc12
Second: O=C(O)c1cc(-c2ccc(OCc3ccccc3)cc2OCc2ccccc2)no1
The melting point of the first is lower: 88 to 93 °C for the first, 192 to 193 °C for the second.

First: CCOC(=O)C(C#N)=CNc1ncc(C)cc1C
Second: CCCCNc1c(C(=O)OCC)cnc2cn[nH]c12
The melting point of the first is higher: 156 to 159 °C for the first, 86 to 95 °C for the second.

First: CCOC(=O)c1cn(C)nc1C(F)F
Second: CCCC(=O)N(Cc1ccc(-c2ccccc2C#N)cc1)c1nn(C)cc1C(=O)OCC
The melting point of the first is lower: 43 to 46 °C for the first, 118 to 119 °C for the second.

Compared with `CCOc1ccc(NC=C(C(=O)Nc2ccccc2)c2cc(C)no2)cc1`, `O=C(Nc1c[nH]nc1C(=O)NCC(O)Cc1ccccc1)c1ccccn1` (stereo not given) is higher in melting point: 114 to 115 °C for the first, 180 to 181 °C for the second.

Compared with `Cc1c(C)c2c(c(C)c1N)CC(C)(C)O2`, `CC1(C)Cc2cccc(Oc3c(Cl)cc(N)cc3Cl)c2O1` is higher in melting point: 110 °C for the first, 140 to 145 °C for the second.

First: CC1=C2C3C(C)CC4=CC(=O)CCC4C3CCC2(C)C(O)C1 (stereo not given)
Second: CC12CC(=O)C3C(C=CC4=CC(=O)CCC43C)C1CCC2=O (stereo not given)
The melting point of the first is lower: 164 to 167 °C for the first, 237 °C for the second.

First: CC12CC3(C)CC(c4ccc(O)cc4)(C1)CC(c1ccc(O)cc1)(C2)C3
Second: COc1ccc(-c2ccc(C(C)=O)cc2)cc1
The melting point of the first is higher: 222 to 224 °C for the first, 156 °C for the second.

First: O=c1c(O)nc2cccnc2n1-c1ccc(Cl)cc1
Second: O=C(O)Cn1c(-c2cccc(Br)c2)nc2cccnc21
The melting point of the first is higher: greater than 300 °C for the first, 247 to 249 °C for the second.

Compared with `COc1ccc(C(=O)Nc2ccc(Cl)c(Cl)c2)cc1NC(=S)Nc1cc(Cl)cc(Cl)c1`, `Cc1cc(NC(=O)c2c(Cl)cccc2Cl)c2nccc(Cl)c2c1` is higher in melting point: 189 to 191 °C for the first, 203 to 205 °C for the second.

First: CCN1c2ncc(CC(O)c3ccncc3)cc2C(=O)N(C)c2ccc(Cl)nc21 (stereo not given)
Second: CC(C)CC(=O)Nc1cccc(-c2ccnc3c(C(=O)c4ccsc4)cnn23)c1
The melting point of the first is higher: 153 to 154 °C for the first, 137 to 139 °C for the second.

Compared with `NC1N=CC=CC1(N)Br` (stereo not given), `CC1(C)Oc2ccc(C(=O)CN=[N+]=[N-])cc2S1` is lower in melting point: 158 to 160 °C for the first, 52 to 53 °C for the second.

First: COc1cc2c(cc1Br)-c1c(-c3cccs3)c3c(n1CC2)C(=O)N(C(C)(C)C)CCC3
Second: Cc1ccc(N2CCN([C@@H](Cc3ccc(OCCc4nc(-c5ccccc5)oc4C)c(Br)c3)C(=O)O)CC2)cc1
The melting point of the first is higher: 232 to 233 °C for the first, 203 to 205 °C for the second.

Compared with `CCCCCCCCCCCC=CC(O)C(COC1OC(CO)C(O)C(O)C1O)NC(=O)CCCCCCCCCCCCCCC` (stereo not given), `CCCCCCCCCCC#Cc1csc(CC(CO)NC(C)=O)c1` (stereo not given) is lower in melting point: 207 to 209 °C for the first, 55 to 58 °C for the second.

Compared with `O=C(Oc1ccc(Cl)c(OCC2CC2(Cl)Cl)c1)N1CCSC1` (stereo not given), `CC(=O)N1CCc2cc(O)ccc2C1` is higher in melting point: 74 to 79.5 °C for the first, 135 to 136 °C for the second.

First: CCCCCNC(=O)[C@@H](Cc1ccc(OCC(=O)O)c(C(=O)O)c1)NC(=O)Cc1ccccc1OC
Second: CC(C)(C)OC(=O)N[C@@H](Cc1ccccc1)C(=O)CCC(=O)O
The melting point of the first is higher: 146 to 148 °C for the first, 108 to 110 °C for the second.

First: CC1(C)CN(C(=O)Nc2cccnc2)c2cc(C#N)ccc21
Second: O=C1NC(=O)C(Cc2ccc(OCCON=Cc3cccnc3)cc2)S1 (stereo not given)
The melting point of the first is higher: 220 to 222 °C for the first, 155 to 157 °C for the second.

First: CC(CC(C(C)C(C)(C)O)N(C)C)C1CCC2C(O)CCCC12C (stereo not given)
Second: CC(CCC(O)C(C)(C)O)C1CCC2C3CC=C4CC(O)CC(O)C4(C)C3CCC12C (stereo not given)
The melting point of the first is lower: 180 to 181 °C for the first, 198 to 200 °C for the second.

First: CC1(C)C(C#N)C1C(=O)O (stereo not given)
Second: Cc1ccc2c(c1C)OC(C(F)(F)F)C(C(=O)O)=C2 (stereo not given)
The melting point of the first is lower: 101 to 106 °C for the first, 245 to 247 °C for the second.

First: CC(=O)NC[C@H]1CN(c2cc(F)c(N3CCS(=O)(=O)CC3)c(F)c2)C(=O)O1
Second: Cc1ccc(N2CCN(Cc3ccc4c(c3)NC(=O)CO4)CC2)cc1
The melting point of the first is lower: 187 to 190 °C for the first, 209 to 212 °C for the second.

First: ClCc1cc(Cl)nc(Cl)n1
Second: Cc1c(Cl)c(F)cc(C(=O)O)c1Cl
The melting point of the first is lower: 32 to 33 °C for the first, 167 to 169 °C for the second.

First: CCCCc1nnc(SCC2CCCCC2)n1Cc1ccc(-c2ccccc2-c2nnn[nH]2)cc1
Second: CCCCc1ncc(/C=C(\Cc2cccs2)C(N)=O)n1Cc1ccc(C(N)=O)cc1
The melting point of the first is lower: 89 to 91 °C for the first, 204 to 206 °C for the second.

First: Cc1cnc(C(N)=O)cn1
Second: COc1cc2c(cc1C(=O)O)OCO2
The melting point of the first is higher: 204 to 206 °C for the first, 151 °C for the second.

First: COc1cc(CC(CO)NC(=O)c2ccccc2)cc(OC)c1 (stereo not given)
Second: CCNC(=O)c1ccc(-n2nnc(C(=O)NC3CC3)c2COCc2ccccc2)c(O)c1
The melting point of the first is lower: 117 to 118 °C for the first, 146 °C for the second.

First: CCCCCS(=O)(=O)NC(=O)/C=C/c1ccc(OCCCOCC2CC2)cc1Oc1ncc(C(F)(F)F)cc1Cl
Second: Cc1ccc(OCCCCCCCCCCC(Cl)(Cl)C(=O)O)cc1
The melting point of the first is higher: 124 to 125 °C for the first, 67 to 68 °C for the second.

Compared with `CCOC(=O)c1c[nH]c2cc(OC)c(OC)cc2c1=O`, `COC(=O)c1ccc(CBr)c(OCC(=O)c2ccc(OC)c(C34CC5CC(CC(C5)C3)C4)c2)c1` is lower in melting point: 275 to 285 °C for the first, 165 °C for the second.

First: O=C(O)c1ccc(NC(=O)c2sc3c([N+](=O)[O-])c(O)c(O)cc3c2Cl)cc1
Second: Cc1cc(C(C)(C)C)c(O)c(S(=O)(=O)Nc2ccc([N+](=O)[O-])cc2Cl)c1
The melting point of the first is higher: 298 to 300 °C for the first, 239 to 243 °C for the second.

Compared with `Cc1ccccc1C(=O)CN1C(=O)C(NC(=O)Nc2cccc(C(=O)O)c2)N=C(c2ccccc2F)c2cccc(C)c21` (stereo not given), `CCc1nc(OC)c(NC(=O)N2CCN(c3cccc(O)c3)CC2)cc1C(=O)NC(C)C(=O)Nc1cc(CO)cc(Nc2c3ccccc3nc3ccccc23)c1` (stereo not given) is higher in melting point: 168 to 176 °C for the first, 207 to 209 °C for the second.

First: CC(=O)NCC1CC1c1c(-c2ccccc2)ccc2nn(C)cc12 (stereo not given)
Second: Cc1cc(Sc2ccccc2)ccc1N
The melting point of the first is higher: 156 to 158 °C for the first, 64 to 65 °C for the second.

First: CC(=O)N1CCC(C(=O)N[C@@H](CC(C)C)C(=O)N[C@@H](C(C)C)[C@@H](O)c2c(-c3ccccc3)c2=O)CC1
Second: CC(C)N(CCC(C#N)c1ccc(-c2ccccc2)cc1)C(C)C (stereo not given)
The melting point of the first is higher: 120 to 124 °C for the first, 54 to 56 °C for the second.

First: O=C(O)CCN1CCN(c2ccccc2)CC1
Second: NS(=O)(=O)OCCCCOc1ccccc1
The melting point of the first is higher: 213 to 215 °C for the first, 76 to 77 °C for the second.

Compared with `Clc1ccc2c(c1)C(c1ccccc1)=NCc1nnc(COC(c3ccccc3)c3ccccc3)n1-2`, `N#Cc1cccc(CSc2nnc(-c3ccc4ncc(-c5ccccn5)n4c3)o2)c1` is lower in melting point: 202 to 203 °C for the first, 192 to 193 °C for the second.

Compared with `CS(=O)(=O)c1ccc(CN2CC3(COc4cc5c(cc43)OCO5)c3ccccc32)o1` (stereo not given), `COc1cccc(OC2COc3ccc(OCc4cc(OC)ccn4)cc3C2O)c1` (stereo not given) is lower in melting point: 177 to 179 °C for the first, 165 to 166 °C for the second.

First: O=C(NC1CCCNC1)c1ccc2[nH]ncc2c1 (stereo not given)
Second: O=C(CCCCCl)NC1CCCCC1
The melting point of the first is higher: 265 to 266 °C for the first, 70 to 71 °C for the second.

First: C=CCCC(O)=C(C#N)C(=O)Nc1ccc(C(F)(F)F)cc1
Second: COc1ccc(COC(=O)CNC=S)cc1
The melting point of the first is higher: 145 °C for the first, 107 to 108 °C for the second.

First: C=COCCOc1ccc(C2(c3ccc(OCCOC=C)cc3)CCC(c3ccc(OCCOC=C)cc3)(c3ccc(OCCOC=C)cc3)CC2)cc1
Second: Cc1ccc(C2CC(=O)CC(c3ccc(C)cc3)N2C)cc1 (stereo not given)
The melting point of the first is higher: 138 to 139 °C for the first, 105 to 107 °C for the second.

Compared with `COC(=O)CC(=O)Nc1cccc(S)c1`, `N#CCC(=O)NCc1ccccn1` is higher in melting point: 52 to 54 °C for the first, 82 to 83 °C for the second.

First: c1cncc(-c2nnc(NCC3CC3)s2)c1
Second: O=P1(O)Oc2c(Cl)cc(Cl)cc2-c2ccc(Cl)cc21
The melting point of the first is lower: 162 to 165 °C for the first, 260 °C for the second.
